Data published in ChEMBL document CHEMBL1149039, “A new scalarane sesterterpenoid from the marine sponge Cacospongia mollior” (J Nat Prod, 1994).
Values after ≈ are worked out from the molar mass of the structure shown.

Experiment: Toxicity in Artemia salina
Type: organism-based
Conditions: in vivo, read-out: LD50 (the source's name)

| Structure (SMILES) | LC50 [µg/mL] |
| --- | --- |
| CC1(C)CCC[C@]2(C)[C@H]3CC[C@@]4(C)[C@@H](CC=C(C=O)[C@@H]4C=O)[C@]3(C)CC[C@@H]12 [12-DEACETOXYSCALARADIAL] | 0.77 (≈ 2.08 µM) |
| CC(=O)O[C@H]1C[C@@H]2[C@@]3(C)CCCC(C)(C)[C@@H]3CC[C@@]2(C)[C@@H]2CC=C(C=O)[C@H](C=O)[C@@]12C [SCALARADIAL] | 0.18 (≈ 0.42 µM) |
